{"source": "ChEMBL document CHEMBL4622932", "about": "“Design, synthesis and biological evaluation of new Myo-inositol derivatives as potential RAS inhibitors” (Bioorg Med Chem Lett, 2020)", "key": {"[1]": {"target": "GTPase KRas (Homo sapiens) (UniProt P01116)", "assay": "Inhibition of KRAS in human MCF7 cells assessed as reduction in ERK1/2 137F5 protein level at 25 uM measured after 24 hrs by Western blot analysis relative to control", "type": "cell-based"}, "[2]": {"target": "GTPase KRas (Homo sapiens) (UniProt P01116)", "assay": "Inhibition of KRAS in human MCF7 cells assessed as reduction in phosphorylated ERK1/2 at Thr185/Tyr187 residues protein level at 25 uM measured after 24 hrs by Western blot analysis relative to control", "type": "cell-based"}, "[3]": {"target": "GTPase KRas (Homo sapiens) (UniProt P01116)", "assay": "Inhibition of KRAS in human MCF7 cells assessed as reduction in Pan RAS protein level at 35 uM measured after 24 hrs by Western blot analysis relative to control", "type": "cell-based"}, "[4]": {"target": "GTPase KRas (Homo sapiens) (UniProt P01116)", "assay": "Inhibition of KRAS in human MCF7 cells assessed as reduction in phosphorylated RAF-1 E1 protein level at 35 uM measured after 24 hrs by Western blot analysis relative to control", "type": "cell-based"}, "[5]": {"target": "GTPase KRas (Homo sapiens) (UniProt P01116)", "assay": "Inhibition of KRAS in human MCF7 cells assessed as reduction in MEK1/2 9G3 protein level at 35 uM measured after 24 hrs by Western blot analysis relative to control", "type": "cell-based"}, "[6]": {"target": "GTPase KRas (Homo sapiens) (UniProt P01116)", "assay": "Inhibition of KRAS in human MCF7 cells assessed as reduction in phosphorylated MEK1/2 at Ser217/221 residues protein level at 35 uM measured after 24 hrs by Western blot analysis relative to control", "type": "cell-based"}, "[7]": {"target": "GTPase KRas (Homo sapiens) (UniProt P01116)", "assay": "Inhibition of KRAS in human MCF7 cells assessed as reduction in ERK1/2 137F5 protein level at 35 uM measured after 24 hrs by Western blot analysis relative to control", "type": "cell-based"}, "[8]": {"target": "GTPase KRas (Homo sapiens) (UniProt P01116)", "assay": "Inhibition of KRAS in human MCF7 cells assessed as reduction in phosphorylated ERK1/2 at Thr185/Tyr187 residues protein level at 35 uM measured after 24 hrs by Western blot analysis relative to control", "type": "cell-based"}, "[9]": {"target": "GTPase KRas (Homo sapiens) (UniProt P01116)", "assay": "Inhibition of KRAS in human MDA-MB-231 cells assessed as reduction in phosphorylation of RAF measured after 24 hrs by Western blot analysis", "type": "cell-based"}, "[10]": {"target": "GTPase KRas (Homo sapiens) (UniProt P01116)", "assay": "Inhibition of KRAS in human MDA-MB-231 cells assessed as reduction in phosphorylation of MEK measured after 24 hrs by Western blot analysis", "type": "cell-based"}, "[11]": {"target": "GTPase KRas (Homo sapiens) (UniProt P01116)", "assay": "Inhibition of KRAS in human MDA-MB-231 cells assessed as reduction in phosphorylation of ERK measured after 24 hrs by Western blot analysis", "type": "cell-based"}, "MDA-MB-231 [12]": {"test_system": "MDA-MB-231", "assay": "Induction of apoptosis in human MDA-MB-231 cells assessed as live cells at 15 uM measured after 48 hrs by annexinV-FITC/propidium iodide staining based flow cytometry (reference value: 99 %)", "type": "functional"}, "MDA-MB-231 [13]": {"test_system": "MDA-MB-231", "assay": "Induction of apoptosis in human MDA-MB-231 cells assessed as early apoptotic cells at 15 uM measured after 48 hrs by annexinV-FITC/propidium iodide staining based flow cytometry (reference value: 0.69 %)", "type": "functional"}, "MDA-MB-231 [14]": {"test_system": "MDA-MB-231", "assay": "Induction of apoptosis in human MDA-MB-231 cells assessed as late apoptotic cells at 15 uM measured after 48 hrs by annexinV-FITC/propidium iodide staining based flow cytometry (reference value: 0 %)", "type": "functional"}, "MDA-MB-231 [15]": {"test_system": "MDA-MB-231", "assay": "Induction of apoptosis in human MDA-MB-231 cells assessed as necrotic cells at 15 uM measured after 48 hrs by annexinV-FITC/propidium iodide staining based flow cytometry (reference value: 0.31 %)", "type": "functional"}, "MDA-MB-231 [16]": {"test_system": "MDA-MB-231", "assay": "Induction of apoptosis in human MDA-MB-231 cells assessed as live cells at 25 uM measured after 48 hrs by annexinV-FITC/propidium iodide staining based flow cytometry (reference value: 99 %)", "type": "functional"}, "MDA-MB-231 [17]": {"test_system": "MDA-MB-231", "assay": "Induction of apoptosis in human MDA-MB-231 cells assessed as early apoptotic cells at 25 uM measured after 48 hrs by annexinV-FITC/propidium iodide staining based flow cytometry (reference value: 0.69 %)", "type": "functional"}, "MDA-MB-231 [18]": {"test_system": "MDA-MB-231", "assay": "Induction of apoptosis in human MDA-MB-231 cells assessed as late apoptotic cells at 25 uM measured after 48 hrs by annexinV-FITC/propidium iodide staining based flow cytometry (reference value: 0 %)", "type": "functional"}, "MDA-MB-231 [19]": {"test_system": "MDA-MB-231", "assay": "Induction of apoptosis in human MDA-MB-231 cells assessed as necrotic cells at 25 uM measured after 48 hrs by annexinV-FITC/propidium iodide staining based flow cytometry (reference value: 0.31 %)", "type": "functional"}, "MCF7 [20]": {"test_system": "MCF7", "assay": "Induction of apoptosis in human MCF7 cells assessed as live cells at 15 uM measured after 48 hrs by annexinV-FITC/propidium iodide staining based flow cytometry (reference value: 99.71 %)", "type": "functional"}, "MCF7 [21]": {"test_system": "MCF7", "assay": "Induction of apoptosis in human MCF7 cells assessed as early apoptotic cells at 15 uM measured after 48 hrs by annexinV-FITC/propidium iodide staining based flow cytometry (reference value: 0.04 %)", "type": "functional"}, "MCF7 [22]": {"test_system": "MCF7", "assay": "Induction of apoptosis in human MCF7 cells assessed as late apoptotic cells at 15 uM measured after 48 hrs by annexinV-FITC/propidium iodide staining based flow cytometry (reference value: 0.17 %)", "type": "functional"}, "MCF7 [23]": {"test_system": "MCF7", "assay": "Induction of apoptosis in human MCF7 cells assessed as necrotic cells at 15 uM measured after 48 hrs by annexinV-FITC/propidium iodide staining based flow cytometry (reference value: 0.08 %)", "type": "functional"}, "MCF7 [24]": {"test_system": "MCF7", "assay": "Induction of apoptosis in human MCF7 cells assessed as live cells at 25 uM measured after 48 hrs by annexinV-FITC/propidium iodide staining based flow cytometry (reference value: 99.71 %)", "type": "functional"}, "MCF7 [25]": {"test_system": "MCF7", "assay": "Induction of apoptosis in human MCF7 cells assessed as early apoptotic cells at 25 uM measured after 48 hrs by annexinV-FITC/propidium iodide staining based flow cytometry (reference value: 0.04 %)", "type": "functional"}, "MCF7 [26]": {"test_system": "MCF7", "assay": "Induction of apoptosis in human MCF7 cells assessed as late apoptotic cells at 25 uM measured after 48 hrs by annexinV-FITC/propidium iodide staining based flow cytometry (reference value: 0.17 %)", "type": "functional"}, "MCF7 [27]": {"test_system": "MCF7", "assay": "Induction of apoptosis in human MCF7 cells assessed as necrotic cells at 25 uM measured after 48 hrs by annexinV-FITC/propidium iodide staining based flow cytometry (reference value: 0.08 %)", "type": "functional"}, "MDA-MB-231 [28]": {"test_system": "MDA-MB-231", "assay": "Induction of necrosis in human MDA-MB-231 cells", "type": "functional, cell-based"}, "MDA-MB-231 [29]": {"test_system": "MDA-MB-231", "assay": "Cell cycle arrest in human MDA-MB-231 cells assessed as accumulation at G1 phase at 15 uM measured after 48 hrs by propidium iodide/RNase staining based flow cytometry (reference value: 74.56 %)", "type": "functional"}, "MDA-MB-231 [30]": {"test_system": "MDA-MB-231", "assay": "Cell cycle arrest in human MDA-MB-231 cells assessed as accumulation at G2 phase at 15 uM measured after 48 hrs by propidium iodide/RNase staining based flow cytometry (reference value: 3.35 %)", "type": "functional"}, "MDA-MB-231 [31]": {"test_system": "MDA-MB-231", "assay": "Cell cycle arrest in human MDA-MB-231 cells assessed as accumulation at S phase at 15 uM measured after 48 hrs by propidium iodide/RNase staining based flow cytometry (reference value: 22.09 %)", "type": "functional"}, "MDA-MB-231 [32]": {"test_system": "MDA-MB-231", "assay": "Cell cycle arrest in human MDA-MB-231 cells assessed as accumulation at G1 phase at 25 uM measured after 48 hrs by propidium iodide/RNase staining based flow cytometry (reference value: 74.56 %)", "type": "functional"}, "MDA-MB-231 [33]": {"test_system": "MDA-MB-231", "assay": "Cell cycle arrest in human MDA-MB-231 cells assessed as accumulation at G2 phase at 25 uM measured after 48 hrs by propidium iodide/RNase staining based flow cytometry (reference value: 3.35 %)", "type": "functional"}, "MDA-MB-231 [34]": {"test_system": "MDA-MB-231", "assay": "Cell cycle arrest in human MDA-MB-231 cells assessed as accumulation at S phase at 25 uM measured after 48 hrs by propidium iodide/RNase staining based flow cytometry (reference value: 22.09 %)", "type": "functional"}}, "data": [{"smiles": "O=P(Oc1ccccc1)(Oc1ccccc1)OC1C2OC3(c4ccccc4)OC(C2O)C(O)C1O3", "note": "(centres undefined)", "values": [{"measurement": "fold change (FC)", "setting": "[1]", "value": 1.14}, {"measurement": "fold change (FC)", "setting": "[2]", "value": 0.91}, {"measurement": "fold change (FC)", "setting": "[3]", "value": 1.11}, {"measurement": "fold change (FC)", "setting": "[4]", "value": 1.05}, {"measurement": "fold change (FC)", "setting": "[5]", "value": 0.87}, {"measurement": "fold change (FC)", "setting": "[6]", "value": 0.86}, {"measurement": "fold change (FC)", "setting": "[7]", "value": 1.11}, {"measurement": "fold change (FC)", "setting": "[8]", "value": 0.35}, {"measurement": "inhibition", "setting": "[9]", "value": "Dose-dependent effect"}, {"measurement": "inhibition", "setting": "[10]", "value": "Dose-dependent effect"}, {"measurement": "inhibition", "setting": "[11]", "value": "Dose-dependent effect"}, {"measurement": "Activity", "setting": "MDA-MB-231 [12]", "value": 91.93, "unit": "%"}, {"measurement": "Activity", "setting": "MDA-MB-231 [13]", "value": 0.39, "unit": "%"}, {"measurement": "Activity", "setting": "MDA-MB-231 [14]", "value": 0.39, "unit": "%"}, {"measurement": "Activity", "setting": "MDA-MB-231 [15]", "value": 7.3, "unit": "%"}, {"measurement": "Activity", "setting": "MDA-MB-231 [16]", "value": 62.65, "unit": "%"}, {"measurement": "Activity", "setting": "MDA-MB-231 [17]", "value": 0.07, "unit": "%"}, {"measurement": "Activity", "setting": "MDA-MB-231 [18]", "value": 0.64, "unit": "%"}, {"measurement": "Activity", "setting": "MDA-MB-231 [19]", "value": 16.64, "unit": "%"}, {"measurement": "Activity", "setting": "MCF7 [20]", "value": 32.46, "unit": "%"}, {"measurement": "Activity", "setting": "MCF7 [21]", "value": 0.37, "unit": "%"}, {"measurement": "Activity", "setting": "MCF7 [22]", "value": 0.28, "unit": "%"}, {"measurement": "Activity", "setting": "MCF7 [23]", "value": 66.88, "unit": "%"}, {"measurement": "Activity", "setting": "MCF7 [24]", "value": 36.83, "unit": "%"}, {"measurement": "Activity", "setting": "MCF7 [25]", "value": 1.23, "unit": "%"}, {"measurement": "Activity", "setting": "MCF7 [26]", "value": 0.49, "unit": "%"}, {"measurement": "Activity", "setting": "MCF7 [27]", "value": 61.44, "unit": "%"}, {"measurement": "Activity", "setting": "MDA-MB-231 [28]", "value": "Dose-dependent effect"}, {"measurement": "Activity", "setting": "MDA-MB-231 [29]", "value": 34.45, "unit": "%"}, {"measurement": "Activity", "setting": "MDA-MB-231 [30]", "value": 21.02, "unit": "%"}, {"measurement": "Activity", "setting": "MDA-MB-231 [31]", "value": 44.74, "unit": "%"}, {"measurement": "Activity", "setting": "MDA-MB-231 [32]", "value": 59.93, "unit": "%"}, {"measurement": "Activity", "setting": "MDA-MB-231 [33]", "value": 0, "unit": "%"}, {"measurement": "Activity", "setting": "MDA-MB-231 [34]", "value": 40.07, "unit": "%"}]}]}
